Test: Osmotic pressure of saturated solutions of osmotically effective compounds and mixtures (vapor pressure osmometer)
Format: physicochemical
Settings: saturated solution in water at 37° C.; Model 302B Vapor Pressure Osmometer
Text: The term “osmagent”, as used herein, includes osmotically effective solutes, osmotically effective compounds, and osmotic agents. […] Osmotically effective compounds useful for the present purpose include magnesium sulfate, magnesium chloride, sodium chloride, lithium chloride, potassium sulfate, sodium carbonate, sodium sulfite, lithium sulfate, potassium chloride, calcium bicarbonate, sodium sulfate, calcium sulfate, potassium acid phosphate, calcium lactate, d-mannitol, urea, inositol, magnesium succinate, tartaric acid, carbohydrates such as raffinose, sucrose, glucose, maltodextrins, α-d-lactose monohydrate, and mixtures thereof. The osmotically effective compound in layer 18 can be in any physical form such as particle, crystal, pellet, tablet, strip, ground, pulverized, film, or granule. The osmotic pressure of saturated solutions of various osmotically effective compounds and for mixtures of osmotic compounds at 37° C. in water, is listed in Table 1. The osmotic pressure can be measured by a commercially available osmometer that measures the vapor pressure difference between pure water and the solution to be analyzed. According to standard thermodynamic principles, the vapor pressure difference is converted into osmotic pressure. In Table 1, osmotic pressures of from 20 atm to 500 atm are set forth. However, the invention includes the use of lower osmotic pressures, and higher osmotic pressures than from 20 atm to 500 atm. The osmometer used for the present measurements is Model 302B, Vapor Pressure Osmometer, manufactured by the Hewlett Packard Co., Avondale, Pa.

| OSMOTIC PRESSURE (atm) | SMILES |
| --- | --- |
| 38 | OC[C@@H](O)[C@@H](O)[C@H](O)[C@H](O)CO [Mannitol] |
| 39 | O=S(=O)([O-])[O-].[K+].[K+] [Potassium Sulfate] |
| 31 | O.O.O.O.O.O.O.O=P([O-])([O-])O.[Na+].[Na+] [Sodium Phosphate Dibasic-7H20] |
| 31 | O.O.O.O.O.O.O.O.O.O.O.O.O=P([O-])([O-])O.[Na+].[Na+] [Sodium Phosphate Dibasic-12H20] |
| 29 | O=P([O-])([O-])O.[Na+].[Na+] [Sodium Phosphate Dibasic-Anhydrous] |
| 28 | O.O=P([O-])(O)O.[Na+] [Sodium Phosphate Monobasic-H20] |
| 36 | O.O.O.O.O.O.O.O.O.O.O.O.O=P([O-])([O-])[O-].[Na+].[Na+].[Na+] [Sodium Phosphate Tribasic-12H20] |
| 150 | OC[C@H]1O[C@@](CO)(O[C@H]2O[C@H](CO)[C@@H](O)[C@H](O)[C@H]2O)[C@@H](O)[C@@H]1O [Sucrose] |

| SMILES | OSMOTIC PRESSURE (atm) |
| --- | --- |
| O=C(CO)[C@@H](O)[C@H](O)[C@H](O)CO [Fructose] | 355 |
| [Cl-].[K+] [Potassium Chloride] | 245 |
| [Cl-].[Na+] [Sodium Chloride] | 356 |

From patent publication US20070207204A1, “Dosage Form for Time-Varying Patterns of Drug Delivery” (ALZA CORPORATION, priority 2001, published 2007)
